The numbers were not newly measured in patent publication US20210338693A1, “Gel Compositions for Transdermal Delivery to Maximize Drug Concentrations in the Stratum Corneum and Serum and Methods of Use Thereof” (Viramal Limited, priority 2016, published 2021), which cites them from elsewhere.

The conditions of this data set: in vivo.

Take `C[C@]12CC[C@H]3[C@@H](CCC4=CC(=O)CC[C@@]43C)[C@@H]1CC[C@@H]2O` [Testosterone]: the half-life is recorded as 1.4 h.

One may read the half-life as how long it takes for the measured level to halve.
